Key:
Format in all cases: biochemical
[1] = molecular target: T1, HDAC6 enzyme (Homo sapiens, UniProt Q9UBN7); experiment: HDAC1/6 Enzyme Inhibitory Assay (HDAC-Glo I/II Assay kit), HDAC6; settings: 1 μM test compound; wells without enzyme = 100% inhibition; read-out: HDAC6 inhibitory rate (%) (1 μM)
T1 construct: transducing full length HDAC1 and HDAC6 genes into Sf-9 insect cells; GST; purchased SignalChem; host or cells: Sf-9 insect cells
T1 sequence (Q9UBN7 1-1215): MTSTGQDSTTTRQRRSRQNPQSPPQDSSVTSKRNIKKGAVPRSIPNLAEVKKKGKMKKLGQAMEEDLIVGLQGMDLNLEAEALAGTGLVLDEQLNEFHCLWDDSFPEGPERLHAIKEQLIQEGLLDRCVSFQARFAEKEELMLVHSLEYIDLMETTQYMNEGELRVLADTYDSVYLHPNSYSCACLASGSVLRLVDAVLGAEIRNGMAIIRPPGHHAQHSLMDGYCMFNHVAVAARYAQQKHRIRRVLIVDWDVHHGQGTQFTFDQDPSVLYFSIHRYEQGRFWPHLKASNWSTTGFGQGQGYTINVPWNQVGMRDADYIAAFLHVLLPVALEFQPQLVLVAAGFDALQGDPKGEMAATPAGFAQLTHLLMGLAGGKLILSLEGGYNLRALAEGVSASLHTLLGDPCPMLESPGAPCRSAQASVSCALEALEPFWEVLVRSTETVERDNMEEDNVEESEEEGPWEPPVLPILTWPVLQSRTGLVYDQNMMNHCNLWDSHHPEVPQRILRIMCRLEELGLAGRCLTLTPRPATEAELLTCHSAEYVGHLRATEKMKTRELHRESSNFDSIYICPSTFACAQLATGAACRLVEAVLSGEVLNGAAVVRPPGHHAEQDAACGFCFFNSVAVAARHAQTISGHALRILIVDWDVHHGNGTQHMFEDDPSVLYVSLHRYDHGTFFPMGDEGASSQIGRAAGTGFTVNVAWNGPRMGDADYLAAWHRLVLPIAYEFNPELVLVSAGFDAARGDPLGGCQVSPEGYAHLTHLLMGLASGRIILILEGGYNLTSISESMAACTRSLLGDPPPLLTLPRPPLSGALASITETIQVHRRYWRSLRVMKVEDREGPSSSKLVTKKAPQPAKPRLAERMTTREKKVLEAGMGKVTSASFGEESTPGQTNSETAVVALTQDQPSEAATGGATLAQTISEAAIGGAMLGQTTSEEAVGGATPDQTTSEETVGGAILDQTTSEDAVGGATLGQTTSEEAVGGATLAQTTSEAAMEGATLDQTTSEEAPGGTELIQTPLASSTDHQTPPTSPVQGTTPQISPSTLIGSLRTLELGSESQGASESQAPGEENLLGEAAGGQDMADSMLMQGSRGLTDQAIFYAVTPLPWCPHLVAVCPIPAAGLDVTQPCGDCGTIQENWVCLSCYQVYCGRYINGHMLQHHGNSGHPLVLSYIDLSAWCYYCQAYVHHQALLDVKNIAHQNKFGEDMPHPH
Method in brief: (§1)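 Luminescence readout (HDAC-Glo I/II) after 20 min RT reaction of GST-purified full-length HDAC1 or HDAC6 (Sf-9 expressed) with substrate-developer; enzyme and compound preincubated 60 min RT; buffer 24 mM Tris-HCl pH 7.5, 0.6 mM glutathione, 0.01% Tween-20; no-enzyme wells = 100% inhibition.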

[2] = molecular target: T2, HDAC1 enzyme (Homo sapiens, UniProt Q13547); experiment: HDAC1/6 Enzyme Inhibitory Assay (HDAC-Glo I/II Assay kit), HDAC1; settings: 1 μM test compound; wells without enzyme = 100% inhibition; read-out: HDAC1 inhibitory rate (%) (1 μM)
T2 construct: transducing full length HDAC1 and HDAC6 genes into Sf-9 insect cells; GST; purchased SignalChem; host or cells: Sf-9 insect cells
T2 sequence (Q13547 whole entry): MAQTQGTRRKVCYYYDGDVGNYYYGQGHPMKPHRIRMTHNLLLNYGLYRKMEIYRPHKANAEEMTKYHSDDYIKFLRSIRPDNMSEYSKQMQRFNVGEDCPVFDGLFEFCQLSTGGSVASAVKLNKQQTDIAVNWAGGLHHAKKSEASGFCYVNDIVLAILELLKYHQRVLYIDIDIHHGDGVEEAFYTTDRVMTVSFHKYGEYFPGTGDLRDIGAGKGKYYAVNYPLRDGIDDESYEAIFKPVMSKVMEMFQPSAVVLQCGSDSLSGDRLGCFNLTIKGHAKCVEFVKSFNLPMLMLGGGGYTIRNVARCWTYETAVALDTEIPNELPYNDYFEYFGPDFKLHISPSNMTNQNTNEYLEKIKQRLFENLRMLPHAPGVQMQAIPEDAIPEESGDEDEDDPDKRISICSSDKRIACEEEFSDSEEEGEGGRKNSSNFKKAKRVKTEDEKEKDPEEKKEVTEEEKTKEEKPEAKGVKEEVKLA
Method in brief: as §1

[3] = molecular target: T3, HDAC9 enzyme (Homo sapiens, UniProt Q9UKV0); experiment: HDAC9 Enzyme Inhibitory Assay (HDAC-Glo class IIa); settings: 1 μM test compound; wells without enzyme = 100% inhibition; read-out: HDAC9 inhibitory rate (%) (1 μM)
T3 construct: transducing full length HDAC9 gene into Sf-9 insect cells; made in house; host or cells: Sf-9 insect cells
T3 sequence (Q9UKV0 whole entry, species assumed): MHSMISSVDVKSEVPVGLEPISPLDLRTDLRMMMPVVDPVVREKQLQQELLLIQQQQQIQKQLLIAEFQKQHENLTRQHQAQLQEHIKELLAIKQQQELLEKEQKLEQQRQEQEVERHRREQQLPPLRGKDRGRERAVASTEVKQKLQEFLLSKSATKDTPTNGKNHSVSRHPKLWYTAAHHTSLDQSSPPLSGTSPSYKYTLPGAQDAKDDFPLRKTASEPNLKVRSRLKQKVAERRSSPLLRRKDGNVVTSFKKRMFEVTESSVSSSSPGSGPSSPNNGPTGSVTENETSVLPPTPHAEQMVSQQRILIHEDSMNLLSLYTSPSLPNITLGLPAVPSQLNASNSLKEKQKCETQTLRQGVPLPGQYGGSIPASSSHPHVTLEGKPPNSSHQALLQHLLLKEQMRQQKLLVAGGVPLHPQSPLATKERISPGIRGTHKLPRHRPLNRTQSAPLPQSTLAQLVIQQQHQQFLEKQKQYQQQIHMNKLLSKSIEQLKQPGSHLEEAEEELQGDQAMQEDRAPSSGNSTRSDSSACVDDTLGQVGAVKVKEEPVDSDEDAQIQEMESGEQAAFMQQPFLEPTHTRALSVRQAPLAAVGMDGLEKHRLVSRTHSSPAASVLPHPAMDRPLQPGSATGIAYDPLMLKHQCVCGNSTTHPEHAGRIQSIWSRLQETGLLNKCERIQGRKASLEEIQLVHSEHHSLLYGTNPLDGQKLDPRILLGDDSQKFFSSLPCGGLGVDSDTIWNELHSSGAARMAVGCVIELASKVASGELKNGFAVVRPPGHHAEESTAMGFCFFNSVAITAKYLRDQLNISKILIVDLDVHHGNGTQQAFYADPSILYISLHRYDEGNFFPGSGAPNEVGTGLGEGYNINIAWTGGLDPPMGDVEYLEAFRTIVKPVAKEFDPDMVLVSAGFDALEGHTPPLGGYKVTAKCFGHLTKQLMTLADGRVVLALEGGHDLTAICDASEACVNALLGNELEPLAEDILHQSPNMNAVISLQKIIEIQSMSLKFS
Method in brief: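 Luminescent HDAC-Glo class IIa readout after a 20 min room-temperature reaction; relative inhibition referenced to enzyme-free wells as 100%. Test compound first preincubated 60 min with Sf-9-expressed, Ni-NTA-purified full-length HDAC9 in pH 7.5 Tris buffer containing 135 mM NaCl, 0.6 mM glutathione and 0.01% Tween-20.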

`O=C1C[C@](Cc2ccccc2)(N2Cc3ccc(-c4noc(C(F)(F)F)n4)cc3C2=O)CN1` [Example 61, 2-((3S)-3-benzyl-5-oxopyrrolidin-3-yl)-6-(5-(trifluoromethyl)-1,2,4-oxadiazol-3-yl)isoindolin-1-one] was tested, and the inhibition at 1 µM [1] was 99%, the inhibition at 1 µM [2] was 41% and the inhibition at 1 µM [3] was 93%.
With `C[C@H](c1ccccc1)N1CC[C@@H]2CC[C@@H](N3Cc4ccc(-c5noc(C(F)(F)F)n5)cc4C3=O)[C@@H]21` [Example 62, 2-((3aS,6R,6aR)-1-((1R)-1-phenylethyl)octahydrocyclopenta[b]pyrrol-6-yl)-6-(5-(trifluoromethyl)-1,2,4-oxadiazol-3-yl)isoindolin-1-one] the inhibition at 1 µM [1] was 98%, the inhibition at 1 µM [2] was 46% and the inhibition at 1 µM [3] was 89%.
With `C[C@H](c1ccccc1)N1CC[C@H]2CC[C@H](N3Cc4ccc(-c5noc(C(F)(F)F)n5)cc4C3=O)[C@H]21` [Example 63, 2-((3aR,6S,6aS)-1-((1R)-1-phenylethyl)octahydrocyclopenta[b]pyrrol-6-yl)-6-(5-(trifluoromethyl)-1,2,4-oxadiazol-3-yl)isoindolin-1-one] the inhibition at 1 µM [1] was 90%, the inhibition at 1 µM [2] was 15% and the inhibition at 1 µM [3] was 82%.
`O=C1CCC2(CCC(N3Cc4ccc(-c5noc(C(F)(F)F)n5)cc4C3=O)CC2)N1` (stereo not drawn) [Example 64, (5r,8r)-8-(1-oxo-6-(5-(trifluoromethyl)-1,2,4-oxadiazol-3-yl)-1,3-dihydro-2H-isoindol-2-yl)-1-azaspiro[4.5]decan-2-one] gave an inhibition at 1 µM [1] of 93%, an inhibition at 1 µM [2] of 6% and an inhibition at 1 µM [3] of 70%.
In the case of `O=C(Cn1c(=O)oc2ccccc21)N1CCC(N2Cc3ccc(-c4noc(C(F)(F)F)n4)cc3C2=O)CC1` [Example 65, 3-(2-oxo-2-(4-(1-oxo-6-(5-(trifluoromethyl)-1,2,4-oxadiazol-3-yl)-1,3-dihydro-2H-isoindol-2-yl)piperidin-1-yl)ethyl)-1,3-benzoxazol-2(3H)-one], the inhibition at 1 µM [1] is reported as 89%, the inhibition at 1 µM [2] is reported as 7% and the inhibition at 1 µM [3] is reported as 73%.
`O=C(c1ccccc1)N1CCC(N2Cc3ncc(-c4noc(C(F)(F)F)n4)cc3C2=O)CC1` [Example 67, 6-(1-benzoylpiperidin-4-yl)-3-(5-(trifluoromethyl)-1,2,4-oxadiazol-3-yl)-6,7-dihydro-5H-pyrrolo[3,4-b]pyridin-5-one] showed an inhibition at 1 µM [1] of 99%, an inhibition at 1 µM [2] of 13% and an inhibition at 1 µM [3] of 81%.
With `O=C(Cc1ccc(F)cc1)N1CCC(N2Cc3ncc(-c4noc(C(F)(F)F)n4)cc3C2=O)CC1` [Example 68, 6-(1-((4-fluorophenyl)acetyl)piperidin-4-yl)-3-(5-(trifluoromethyl)-1,2,4-oxadiazol-3-yl)-6,7-dihydro-5H-pyrrolo[3,4-b]pyridin-5-one] the inhibition at 1 µM [1] was 90%, the inhibition at 1 µM [2] was 35% and the inhibition at 1 µM [3] was 90%.
For `CC(=O)N1CCC(N2Cc3ncc(-c4noc(C(F)(F)F)n4)cc3C2=O)C1` (stereo not drawn) [Example 69, 6-(1-acetylpyrrolidin-3-yl)-3-(5-(trifluoromethyl)-1,2,4-oxadiazol-3-yl)-6,7-dihydro-5H-pyrrolo[3,4-b]pyridin-5-one], the inhibition at 1 µM [1] was 91%, the inhibition at 1 µM [2] was 15% and the inhibition at 1 µM [3] was 81%.
Work on `O=C(c1ccccc1)N1CCC(N2Cc3ncc(-c4noc(C(F)(F)F)n4)cc3C2=O)C1` (stereo not drawn) [Example 70, 6-(1-benzoylpyrrolidin-3-yl)-3-(5-(trifluoromethyl)-1,2,4-oxadiazol-3-yl)-6,7-dihydro-5H-pyrrolo[3,4-b]pyridin-5-one] yielded an inhibition at 1 µM [1] of 96%, an inhibition at 1 µM [2] of 52% and an inhibition at 1 µM [3] of 95%.
`O=C(Cc1ccc(F)cc1)N1CCC(N2Cc3ncc(-c4noc(C(F)(F)F)n4)cc3C2=O)C1` (stereo not drawn) [Example 74, 6-(1-((4-fluorophenyl)acetyl)pyrrolidin-3-yl)-3-(5-(trifluoromethyl)-1,2,4-oxadiazol-3-yl)-6,7-dihydro-5H-pyrrolo[3,4-b]pyridin-5-one] was tested, and the inhibition at 1 µM [1] was 86%, the inhibition at 1 µM [2] was 33% and the inhibition at 1 µM [3] was 90%.
In the case of `CC(=O)N1CC(N2Cc3ncc(-c4noc(C(F)(F)F)n4)cc3C2=O)C1` [Example 75, 6-(1-acetylazetidin-3-yl)-3-(5-(trifluoromethyl)-1,2,4-oxadiazol-3-yl)-6,7-dihydro-5H-pyrrolo[3,4-b]pyridin-5-one], the inhibition at 1 µM [1] is reported as 87%, the inhibition at 1 µM [2] is reported as 11% and the inhibition at 1 µM [3] is reported as 79%.
Work on `O=C(c1ccccc1)N1CC(N2Cc3ncc(-c4noc(C(F)(F)F)n4)cc3C2=O)C1` [Example 76, 6-(1-benzoylazetidin-3-yl)-3-(5-(trifluoromethyl)-1,2,4-oxadiazol-3-yl)-6,7-dihydro-5H-pyrrolo[3,4-b]pyridin-5-one] yielded an inhibition at 1 µM [1] of 85%, an inhibition at 1 µM [2] of 31% and an inhibition at 1 µM [3] of 89%.
`O=C(Cc1ccc(F)cc1)N1CC(N2Cc3ncc(-c4noc(C(F)(F)F)n4)cc3C2=O)C1` [Example 77, 6-(1-((4-fluorophenyl)acetyl)azetidin-3-yl)-3-(5-(trifluoromethyl)-1,2,4-oxadiazol-3-yl)-6,7-dihydro-5H-pyrrolo[3,4-b]pyridin-5-one] was tested, and the inhibition at 1 µM [1] was 92%, the inhibition at 1 µM [2] was 30% and the inhibition at 1 µM [3] was 90%.
`CC(C)(C)OC(=O)N[C@@H]1COCC[C@H]1N1Cc2ccc(-c3noc(C(F)(F)F)n3)cc2C1=O` [Example 81, tert-butyl ((3S,4R)-4-(1-oxo-6-(5-(trifluoromethyl)-1,2,4-oxadiazol-3-yl)-1,3-dihydro-2H-isoindol-2-yl)tetrahydro-2H-pyran-3-yl)carbamate] gave an inhibition at 1 µM [1] of 100%, an inhibition at 1 µM [2] of 16% and an inhibition at 1 µM [3] of 62%.
Work on `O=C(N[C@@H]1COCC[C@H]1N1Cc2ccc(-c3noc(C(F)(F)F)n3)cc2C1=O)C1CC1` [Example 82, N-((3S,4R)-4-(1-oxo-6-(5-(trifluoromethyl)-1,2,4-oxadiazol-3-yl)-1,3-dihydro-2H-isoindol-2-yl)tetrahydro-2H-pyran-3-yl)cyclopropanecarboxamide] yielded an inhibition at 1 µM [1] of 99%, an inhibition at 1 µM [2] of 10% and an inhibition at 1 µM [3] of 61%.
With `CC1(C(=O)N[C@@H]2COCC[C@H]2N2Cc3ccc(-c4noc(C(F)(F)F)n4)cc3C2=O)COC1` [Example 83, 3-methyl-N-((3S,4R)-4-(1-oxo-6-(5-(trifluoromethyl)-1,2,4-oxadiazol-3-yl)-1,3-dihydro-2H-isoindol-2-yl)tetrahydro-2H-pyran-3-yl)oxetane-3-carboxamide] the inhibition at 1 µM [1] was 101%, the inhibition at 1 µM [2] was 5% and the inhibition at 1 µM [3] was 52%.
`O=C(N[C@@H]1CCCC[C@H]1N1Cc2ncc(-c3noc(C(F)(F)F)n3)cc2C1=O)C1CC1` [Example 84, N-((1R,2R)-2-(5-oxo-3-(5-(trifluoromethyl)-1,2,4-oxadiazol-3-yl)-5,7-dihydro-6H-pyrrolo[3,4-b]pyridin-6-yl)cyclohexyl) cyclopropanecarboxamide] was tested, and the inhibition at 1 µM [1] was 102%, the inhibition at 1 µM [2] was 18% and the inhibition at 1 µM [3] was 85%.
In the case of `CC(C)(C)OC(=O)N[C@H]1CCCC[C@H]1N1Cc2ccc(-c3noc(C(F)(F)F)n3)cc2C1=O` [Example 85, tert-butyl ((1S,2R)-2-(1-oxo-6-(5-(trifluoromethyl)-1,2,4-oxadiazol-3-yl)-1,3-dihydro-2H-isoindol-2-yl)cyclohexyl)carbamate], the inhibition at 1 µM [1] is reported as 98%, the inhibition at 1 µM [2] is reported as 41% and the inhibition at 1 µM [3] is reported as 67%.

From patent US10308643B2, “Heterocyclic compound” (Takeda Pharmaceutical Company Limited, priority 2015, dated 2019)
